{
  "source": "patent US5773236A",
  "about": "“Assay for glutathiane transferase using polyhaloaryl-substituted reporter molecules” (Molecule Probes, Inc., priority 1997, dated 1998)",
  "key": {"[1]": {"test_system": "NIH-3T3 cells", "assay": "Marker gene expression by flow cytometry, NIH-3T3 (Example 62)", "assay_type": "cell-based", "details": "0.2 mM dye, 37° C., 30 minutes", "description": "(§1) NIH-3T3 and CRE BAG2 cells are maintained as in Example 61. A 10 mM stock solution of (((3 -(2-pentafluorobenzoyl)amino)ethyl)amino)carbonyl)-umbelliferyl β-D-galactopyranoside (Compound 37; Example 37) is prepared in DMF. A 10 mM stock solution of 4-chloromethylcoumarin β-D-galactopyranoside (CMCG; Molecular Probes #D-2921) is prepared in a 1:1 mixture of DMSO and water. NIH-3T3 and CRE BAG2 cells are trypsinized, washed with phosphate buffered saline (PBS), pH 7.2 and resuspended in D-MEM with 10% BCS. To separate 1 mL cell suspensions are added the dye stock solutions to obtain final concentrations of 0.2 mM dye. Incubation is carried out at 37° C. for 30 minutes. Cells are centrifuged to form a pellet, the supernatant is discarded and the cells are washed twice with PBS, pH 7.2 and suspended in the same buffer. Cells are analyzed by flow cytometry using a Becton-Dickinson FACS Vantage flow cytometer. […] However, CRE BAG 2 cells stained with the Compound 37 show fluorescence that is greater than 25-fold that shown by autofluorescent control cells. For the CRE BAG 2 cells stained with CMCG, the fluorescence intensity is only 8-fold greater than that of the autofluorescent control cells."}, "[2]": {"test_system": "CRE BAG 2 cells", "assay": "Marker gene expression by flow cytometry, CRE BAG 2 (Example 62)", "assay_type": "cell-based", "details": "0.2 mM dye, 37° C., 30 minutes", "description": "as §1"}, "[3]": {"test_system": "P3×63AG8 cells", "assay": "Peptidase substrate in live cells, flow cytometry (Example 58)", "assay_type": "cell-based", "details": "1 μM, 37° C., 30 minutes", "description": "P3×63AG8 cells obtained from American Type Culture Collection Co., Rockville, Md. are used. They are grown in a humidified atmosphere of 5% CO2 in Dulbecco's modified Eagle's medium (D-MEM) supplemented with 10% calf serum, 50 μg/mL gentamycin, 300 μg/mL L-glutamine and 10 mM HEPES, pH 7.4. Compound 13-Arg (Prepared as in Examples 12 and 13) is dissolved at 1 mM in DMSO. The P3×63AG8 cells are trypsinized, washed with phosphate-buffered saline (PBS), pH 7.2 and resuspended in 1 mL of the same buffer. 1 μL of the stock reagent is added to 1 mL of the cell suspension to obtain a final concentration of 1 μM. Incubation is carried out at 37° C. for 30 minutes. Cells are centrifuged to form a pellet, the supernatant is discarded, the cells are washed twice with PBS, pH 7.2 and resuspended in 300 μL of the same buffer. Cells are analyzed by flow cytometry using the Becton-Dickinson FACS Vantage flow cytometer."}, "[4]": {"test_system": "CRE BAG 2 cells", "assay": "Peptidase substrates in live cells, fluorescence microscopy (Example 59)", "assay_type": "cell-based", "details": "1 μM, 0.5 μM or 0.1 μM, 37° C., 30 minutes", "description": "CRE BAG 2 cells obtained from American Type Culture Collection Co., Rockville, Md. are used. They are grown in a humidified atmosphere of 5% CO2 in D-MEM supplemented with 10% calf serum, 50 μg/mL gentamycin, 300 μg/mL L-glutamine and 10 mM HEPES, pH 7.4. 1 mM stock solutions of Compound 13-Leu (Example 13) and Compound 13-Arg substrate are prepared in DMSO. CRE BAG 2 cells are trypsinized, washed with phosphate-buffered saline, pH 7.2 and resuspended in 1 mL of the same buffer. 1 μL, 0.5 μL or 0.1 μL of the stock reagents is added to 1 mL of the cell suspension to obtain a final concentration of 1 μM, 0.5 μM or 0.1 μM. Incubation is carried out at 37° C. for 30 minutes. Cells are centrifuged to form a pellet, the supernatant is discarded and the cells are washed with PBS, pH 7.2 and suspended in the same buffer. Cells are mounted on slides and observed by fluorescence microscopy using filters optimized for fluorescein."}, "[5]": {"assay": "Quantitation of GSH in enzymatic reactions, TLC (Example 55)", "assay_type": "biochemical", "details": "0.5 mM Compound 1, 10 μg/mL GST, limiting GSH, 1 hour, 37° C., UV hand lamp", "description": "(§2) A set of reactions as described in Example 48 are performed using limiting concentrations of GSH (0.1 μM-1 mM), to measure the range of sensitivity of the assay for quantitating GSH. Alternatively, the reaction is performed using excess GSH and limiting GST (0.1 μg/mL-20 μg/mL) to determine the suitability of the method to detect and quantitate glutathione transferase activity of isolated enzymes or of GST-fusion proteins.\n(§3) In one hour reactions at 37° C., using 0.5 mM Compound 1 (Example 1) as the substrate, 10 μg/mL GST and limiting GSH, the minimum amount of fluorescent Compound 1-GSH adduct (Compound 45) detectable by simple illumination with a long wavelength UV hand lamp corresponds to ~2-4 picomoles of GSH. When using excess GSH and variable amounts of GST, it is possible to detect by visible inspection the reaction product in solutions containing 5 μg/mL of enzyme spotted on TLC in 2 μL amounts: this spot corresponds to ~10 ng of GST. […] Quantitative measurement of the amount of product formed can be performed by either HPLC (Example 52), using a plate scanner (Example 53) or by extraction of the scraped silica gel spots into methanol or pH 8.0 buffer and measurement of the fluorescence against that of a series of dilutions of the authentic adduct (Example 45) in the same buffer using a fluorometer or microplate reader."}, "[6]": {"test_system": "GST", "assay": "Quantitation of GST in enzymatic reactions, TLC (Example 55)", "assay_type": "biochemical", "details": "excess GSH, 2 μL spotted on TLC", "description": "as §2, §3"}, "[7]": {"test_system": "glutathione transferase (endogenous GST in BPAE cell lysates)", "assay": "Determination of GST activity in cell extracts (Example 56)", "assay_type": "biochemical, Bovine", "description": "(§4) Cultures of BPAE cells are trypsinized, pelleted, washed once in PBS and resuspended in 200 μL of distilled water in numbers from 200 to 1,000,000. The cells are lysed by repeated freezing and thawing and spun for 10 min. in a microfuge to eliminate the insoluble particles from the lysate, which contains both GSH and GST.\nThe assay for the amount of GST activity present in cell lysates (endogenous GST) is performed using the same system as above with the exception that 5 mM GSH is added to the reaction mixture to ensure that there is a sufficient excess of GSH to saturate the enzyme. The reaction is incubated for one hour at 37° C. and 2 μL of each sample are spotted on TLC plates and developed as described in Example 48. Product formation is quantitated using a plate scanner as for GSH determination (as in Example 53). […] Similarly, this assay system can be used to quantitate GST-fusion proteins."}, "[8]": {"test_system": "GSH in BPAE cell lysate", "assay": "Determination of GSH in cell extracts (Example 56)", "assay_type": "biochemical, Bovine", "details": "0.2 mM Compound 1, 5 μg GST, 2 hours, 37° C.; FIG. 3", "description": "as §4\nTo 150 μL of the lysate are added 5.5 μL of 1.8M MOPS pH 7.5, Compound 1 at the final concentration of 0.2 mM, 5 μg GST and distilled water to obtain the final volume of 200 μL. The reaction mixtures are incubated for 2 hours at 37° C. and analyzed by TLC by spotting 2 μL of each sample and developing as described in Example 48. The spots corresponding to the product formed by the different amounts of cells, because of their endogenous GSH is quantitated on a plate scanner as described in Example 53. […] Quantitation of GSH can also be performed by separating the product from the reaction mixture by HPLC as in Example 52."}, "[9]": {"test_system": "GST", "assay": "HPLC analysis of the in vitro reaction mixture (Example 52)", "assay_type": "biochemical", "details": "with GST, absorbance at 500 nm", "description": "To determine whether a compound is a selective substrate for glutathione transferase, a 2 mM ethanol stock solution of a polyhalogenated derivative (for example the series of butylbenzamides described in Example 49), reduced glutathione (phosphate buffer stock solution, 5 mM) and glutathione S-transferase (phosphate buffer stock solution, 1 unit/mL) are incubated at 25° C. in the mixture of 98% 0.1M K2 HPO4 -KH2 PO4 buffer (pH7.5) that contains 1 mM EDTA and 2% ethanol for 2 h. The reaction is then stopped by adding 10% H2 O2.\nReaction mixtures with and without GST using Compound 1 as the substrate, are prepared as described in Example 48. The solutions are mixed overnight with three volumes of ethyl acetate followed by centrifugation at 15,000×g for 30 min to separate the organic and aqueous layers. HPLC analysis using a Rainin HPLC equipped with a C18, 5 μm, 100 Å, 4.6×250 mm MICROSORB-MV reverse phase column. Products are separated in 30 min with a gradient of 5% to 95% solvent B in Solvent A at a flow rate of 1 mL/min, where solvent A is 0.1M triethylammonium acetate, pH 7.0, and solvent B is acetonitrile (see FIG. 1). Products are detected by reading the absorbance at 500 nm. Peaks are identified and, if desired, quantitated by comparing retention times with authentic samples of the glutathione adduct of Compound 45 (Example 45)."}, "[10]": {"test_system": "β-galactosidase", "assay": "Reactivity with thiol groups of proteins (Example 51)", "assay_type": "biochemical", "description": "To test the specificity of the Compound 1 reaction with GSH versus thiol-containing proteins, β-galactosidase (a protein that has several free thiols) is dissolved at 5 mg/mL in deoxygenated 0.1M phosphate, 0.1M NaCl, pH 7.5, and reacted under anaerobic conditions with 5-(pentafluorobenzoylamino)fluorescein diacetate (Compound 4, Example 3) or Compound 1 dissolved at 10 mg/mL in DMSO at a molar ratio of the reagent to protein of 15. This assay is performed both in the presence and absence of 30 mM N-ethyl maleimide (NEM) as an effective thiol-blocking reagent. The reactions are incubated at room temperature for 1 hour, stopped by the addition of hydroxylamine, pH 9 to a final concentration of 0.15M, and incubated for 2 more hours to hydrolyze the acetate groups. […] Consequently, no reaction of either Compound 4 or Compound 1 with β-galactosidase is detected under the described conditions."}, "[11]": {"test_system": "glutathione transferase (GST)", "assay": "Reactivity with glutathione catalyzed by glutathione transferase, TLC (Example 50)", "assay_type": "biochemical", "description": "The suitability of Compound 1 (Example 1) and 5-(pentachlorobenzoylamino)fluorescein (Compound 48) as substrates for glutathione transferase (GST) in the presence of excess glutathione (GSH) is tested in vitro as follows: 5 mM GSH, 0.5 mM substrate (Compound 1 or Compound 48) and 20 micrograms GST (Sigma #G-6511, 70 units/mg) are combined in 0.1M phosphate buffer, pH 8.0, for 1 hour at 37° C. The reaction is terminated by spotting approximately 3 μL on silica gel TLC plates. The plate is developed using 1-butanol: methanol: water (3:1:1). […] Analysis of the reaction mixture by HPLC as in Example 52 confirms that the reaction product of Compound 1 with GSH is identical to the authentic Compound 1-GSH adduct as prepared in Example 45 (Compound 45)."}},
  "data": [
    {"molecule": "O=C(NCCNC(=O)c1cc2ccc(O[C@@H]3O[C@H](CO)[C@H](O)[C@H](O)[C@H]3O)cc2oc1=O)c1c(F)c(F)c(F)c(F)c1F", "note": "[Compound 37, ((((3-(2-pentafluorobenzoyl)amino)ethyl)amino)carbonyl)umbelliferyl β-D-galactopyranoside]", "values": [
      {"measurement": "fluorescence versus autofluorescent cells", "setting": "[1]", "value": "do not show fluorescence greater than that observed for autofluorescent cells"},
      {"measurement": "fluorescence relative to autofluorescent control cells", "setting": "[2]", "value": "greater than 25 fold"}
    ]},
    {"molecule": "N=C(N)NCCC[C@H](N)C(=O)Nc1ccc2c(c1)Oc1cc(NC(=O)c3c(F)c(F)c(F)c(F)c3F)ccc1C21OC(=O)c2ccccc21", "note": "(stereo partly drawn) [Compound 13-Arg]", "values": [
      {"measurement": "cell fluorescence (FL 1 channel)", "setting": "[3]", "value": "fluorescence levels greater than the cell's autofluorescence"},
      {"measurement": "staining of cells, fluorescence microscopy", "setting": "[4]", "value": "punctate green fluorescence associated with organelles"}
    ]},
    {"molecule": "O=C1OC2(c3ccc(O)cc3Oc3cc(O)ccc32)c2ccc(NC(=O)c3c(F)c(F)c(F)c(F)c3F)cc21", "note": "[Compound 1, 5-(pentafluorobenzoylamino)fluorescein]", "values": [
      {"measurement": "minimum amount of adduct detectable, corresponding to GSH", "setting": "[5]", "value": "2-4 picomoles"},
      {"measurement": "amount of GST corresponding to detectable spot", "setting": "[6]", "value": "~ 10 ng"},
      {"measurement": "enzyme (GST) concentration detectable by visible inspection", "setting": "[6]; variable GST, 1 hour, 37° C.", "value": 5, "unit": "µg/mL"},
      {"measurement": "usefulness for determination of GST activity in cell lysates", "setting": "[7]; 5 mM GSH, one hour, 37° C., FIG. 4", "value": "useful for the determination of the activity of GST activity in cells lysates"},
      {"measurement": "adduct formation in absence of enzyme", "setting": "[7]; high concentration of both substrate and GSH", "value": "a trace amount of adduct forms"},
      {"measurement": "plot of fluorescence intensity of Compound 1-GSH adduct versus number of cells (GSH)", "setting": "[8]", "value": "good linearity"},
      {"measurement": "products in aqueous layer by HPLC", "setting": "[9]", "value": "two major peaks with elution times corresponding to the Compound 45 and to the unreacted Compound 1"},
      {"measurement": "fluorescent proteins formed, gel electrophoresis", "setting": "[10]; molar ratio of reagent to protein 15", "value": "no fluorescent proteins are formed"},
      {"measurement": "reaction with β-galactosidase, TLC", "setting": "[10]; molar ratio of reagent to protein 15, pH 7.5, 1 hour, with and without 30 mM NEM", "value": "no reaction"},
      {"measurement": "adduct formation with glutathione in presence of GST", "setting": "[11]; 5 mM GSH, 0.5 mM substrate, 20 micrograms GST, pH 8.0, 1 hour, 37° C.", "value": "forms a fluorescent adduct with glutathione"},
      {"measurement": "reaction in control without GST", "setting": "[11]; GST omitted", "value": "very low or no reaction"}
    ]}
  ]
}
